Data taken from ChEMBL document CHEMBL1777765, “Synthesis of 5-thiodidehydropyranylcytosine derivatives as potential anti-HIV agents” (2011).
Calls of active or inactive are those of the source. No cut-off for these calls is given here.

Legend:
[1] = test system: Human immunodeficiency virus 1; experiment: Antiviral activity against HIV1 infected in human PBMC assessed as inhibition of viral replication at 1 to 1000 nM by p24 HIV antigen capture assay; format: functional, organism-based
[2] = test system: Human immunodeficiency virus 1; experiment: Antiviral activity against HIV1 infected in human PBMC assessed as inhibition of viral replication at 10 nM by p24 HIV antigen capture assay relative to control; format: functional
[3] = test system: Human immunodeficiency virus 1; experiment: Antiviral activity against HIV1 infected in human PBMC assessed as inhibition of viral replication at 100 nM by p24 HIV antigen capture assay relative to control; format: functional

Structure (SMILES) | inhibition [1] | inhibition at 0.01 µM [2] [%] | inhibition at 0.1 µM [3] [%]
Nc1ccn([C@H]2C=C[C@@H](CO)[C@H](CO)S2)c(=O)n1 | Active |  | 
Nc1ccn([C@@H]2C=C[C@@H](CO)[C@H](CO)S2)c(=O)n1 (racemic) |  | 65 | 75
Nc1ccn([C@@H]2CS[C@H](CO)O2)c(=O)n1 [LAMIVUDINE] |  | 37 | 
